The target of data set [1] is Gamma-secretase. The data set is described as follows: Inhibition of gamma-secretase in human SH-SY5Y cells overexpressing APP assessed as amyloid beta-40 production by electrochemiluminescent assay.
For data set [2], the target named is Gamma-secretase. In words: Inhibition of gamma-secretase in human SH-SY5Y cells overexpressing APP assessed as amyloid beta-42 production by electrochemiluminescent assay.
The target of data set [3] is Voltage-gated inwardly rectifying potassium channel KCNH2 (Homo sapiens, UniProt Q12809).
Description: Displacement of radiolabeled MK-499 from human ERG expressed in HEK293 cells
Data set [4] in a line: Plasma clearance in Sprague-Dawley rat at 1 mg/kg, iv. The arrangement: dose 1 mg/kg, route intravenous. Format: ADME, organism-based.
Data set [5] can be described thus: Volume of distribution at steady state in Sprague-Dawley rat at 1 mg/kg, iv. Format: ADME, organism-based. Conditions: in vivo. More on the design: dose 1 mg/kg, route intravenous.
A short description of data set [6]: Half life in Sprague-Dawley rat at 1 mg/kg, iv. It counts as ADME, organism-based. More on the design: dose 1 mg/kg, route intravenous. Conditions: in vivo.
Data set [7] has as its system Rattus norvegicus. In words: Volume of distribution at steady state in Sprague-Dawley rat at 2 mg/kg, po. Format: ADME, organism-based. More on the design: dose 2 mg/kg, route oral. The conditions noted are these: in vivo.
Data set [8] is described as follows: Oral bioavailability in Sprague-Dawley rat at 2 mg/kg. It counts as ADME, organism-based. The conditions noted are these: in vivo.
The nature of data set [9]: Plasma clearance in Sprague-Dawley rat at 2 mg/kg, po. Format: ADME, organism-based. The arrangement: dose 2 mg/kg, route oral.
Data set [10] relates to Rattus norvegicus. In words: Dose normalized AUC in Sprague-Dawley rat at 2 mg/kg, po. Format: ADME, organism-based. More on the design: dose 2 mg/kg, route oral. The conditions noted are these: in vivo.
Data set [11] in a line: Solubility of the compound in PBS buffer. It counts as physicochemical.

≈ marks a conversion by molar mass, not a printed value.

Chain of Voltage-gated inwardly rectifying potassium channel KCNH2 (Q12809 whole entry): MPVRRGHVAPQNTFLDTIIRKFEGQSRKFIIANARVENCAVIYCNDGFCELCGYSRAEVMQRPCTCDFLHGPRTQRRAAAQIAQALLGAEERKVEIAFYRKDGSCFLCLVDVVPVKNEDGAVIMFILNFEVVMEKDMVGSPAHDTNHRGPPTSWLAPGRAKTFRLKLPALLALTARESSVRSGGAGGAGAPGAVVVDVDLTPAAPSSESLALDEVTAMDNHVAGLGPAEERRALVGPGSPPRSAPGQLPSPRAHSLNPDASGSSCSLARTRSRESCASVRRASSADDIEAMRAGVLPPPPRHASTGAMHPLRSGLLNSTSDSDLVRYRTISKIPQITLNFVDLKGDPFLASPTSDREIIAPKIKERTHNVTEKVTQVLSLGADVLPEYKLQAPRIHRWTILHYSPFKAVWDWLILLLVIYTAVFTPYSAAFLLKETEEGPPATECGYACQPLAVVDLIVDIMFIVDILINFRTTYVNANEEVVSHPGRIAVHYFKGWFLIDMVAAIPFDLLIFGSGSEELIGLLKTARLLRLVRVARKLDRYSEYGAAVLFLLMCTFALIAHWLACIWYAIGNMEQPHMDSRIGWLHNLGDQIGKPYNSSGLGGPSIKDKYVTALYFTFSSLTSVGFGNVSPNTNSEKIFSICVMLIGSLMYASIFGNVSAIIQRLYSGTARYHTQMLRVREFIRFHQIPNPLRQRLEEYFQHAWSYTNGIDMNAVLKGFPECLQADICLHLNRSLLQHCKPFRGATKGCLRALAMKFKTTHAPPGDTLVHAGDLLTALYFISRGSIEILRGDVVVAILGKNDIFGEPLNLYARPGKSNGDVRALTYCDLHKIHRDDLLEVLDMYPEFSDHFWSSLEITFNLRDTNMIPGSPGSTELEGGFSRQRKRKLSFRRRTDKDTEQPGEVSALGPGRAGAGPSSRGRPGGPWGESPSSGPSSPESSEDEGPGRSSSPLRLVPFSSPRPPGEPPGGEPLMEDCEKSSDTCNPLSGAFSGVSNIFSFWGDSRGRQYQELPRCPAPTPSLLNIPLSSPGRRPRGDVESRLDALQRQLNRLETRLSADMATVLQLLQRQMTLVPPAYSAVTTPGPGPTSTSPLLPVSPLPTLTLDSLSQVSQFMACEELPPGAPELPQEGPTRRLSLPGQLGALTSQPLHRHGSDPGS

As for `COc1cc(/C=C/c2nc3ccccc3[nH]2)ccc1-n1cnc(C)c1`, the results for the IC50 (on Gamma-secretase [1]; at Gamma-secretase [2]; in data set [3]) were more than 10 µM, 0.84 µM and 0.68 µM, respectively.
For `COc1cc(/C=C/c2nc3ccccc3c(=O)[nH]2)ccc1-n1cnc(C)c1`, the results for the concentration for half-maximal inhibition (IC50) at Gamma-secretase [1] and at Gamma-secretase [2] were 4.95 µM and 3.89 µM, respectively.
On the same counts, the results for `COc1cc(/C=C/c2nc3cccc(F)c3c(=O)[nH]2)ccc1-n1cnc(C)c1` are more than 10 µM and 4.87 µM.
On the same counts, the results for `COc1cc(/C=C/c2nc3ccc(F)cc3c(=O)[nH]2)ccc1-n1cnc(C)c1` are more than 10 µM and 4.28 µM.
For `COc1cc(/C=C/c2nc3cc(Cl)ccc3c(=O)[nH]2)ccc1-n1cnc(C)c1`, the results for the IC50 on Gamma-secretase [1] and on Gamma-secretase [2] were more than 10 µM and 0.66 µM, respectively. In [4], this molecule had a clearance of 6.8 mL/min/kg. Further, in [5], the Vd came out at 1.8 L/kg. The molecule also had a half-life in data set [6] of 5.8 h. In addition, the Vdss in the data set with Rattus norvegicus [7] was 8 L/kg. The bioavailability in [8] turned out to be 59%. Besides, the CL/F in data set [9] turned out to be 8 mL/min/kg. The same molecule registered an exposure (AUC) in the data set on Rattus norvegicus [10] of 7 µM·h.
`COc1cc(/C=C/c2nc3cc(Br)ccc3c(=O)[nH]2)ccc1-n1cnc(C)c1`: the IC50 on Gamma-secretase [1] came to 4.82 µM; on Gamma-secretase [2] it was 0.34 µM.
Regarding `COc1cc(/C=C/c2nc3cc(S(C)(=O)=O)ccc3c(=O)[nH]2)ccc1-n1cnc(C)c1`, the IC50 on Gamma-secretase [1] came out at 6.74 µM; on Gamma-secretase [2], 2.18 µM.
Consider `COc1cc(/C=C/c2nc3cc(C(F)(F)F)ccc3c(=O)[nH]2)ccc1-n1cnc(C)c1`, for which the IC50 worked out at 3.74 µM on Gamma-secretase [1] and 0.37 µM on Gamma-secretase [2].
`COc1cc(/C=C/c2nc3scc(C)c3c(=O)[nH]2)ccc1-n1cnc(C)c1`: the IC50 on Gamma-secretase [1] is more than 10 µM; at Gamma-secretase [2], 1.29 µM; in data set [3] it was more than 10 µM.
Take `COc1cc(/C=C/c2nc3sc(C)c(C)c3c(=O)[nH]2)ccc1-n1cnc(C)c1`: the figures for the IC50 (on Gamma-secretase [1]; at Gamma-secretase [2]; in [3]) were more than 10 µM, 1.65 µM and more than 10 µM, respectively.
As to `COc1cc(/C=C/c2nc3sc4c(c3c(=O)[nH]2)CCC4)ccc1-n1cnc(C)c1`, the IC50 on Gamma-secretase [1] came out at 3.89 µM; at Gamma-secretase [2] it was 0.37 µM; in data set [3], 4.73 µM.
In the case of `COc1cc(/C=C/c2nc(N)c3ccccc3n2)ccc1-n1cnc(C)c1`, the IC50 at Gamma-secretase [1] came out at 6.1 µM; on Gamma-secretase [2] it was 1.69 µM; in data set [3], 0.14 µM. In data set [11], this molecule showed a solubility of 6 µM (≈ 2.14 µg/mL).
Consider `COc1cc(/C=C/c2nc3ccccc3c(=O)n2-c2ccccc2)ccc1-n1cnc(C)c1`, for which the IC50 on Gamma-secretase [1] was more than 10 µM; at Gamma-secretase [2] it was 2.08 µM; in data set [3] it was 0.99 µM.
As to `COc1cc(/C=C/c2nc3ccccc3c(=O)n2C)ccc1-n1cnc(C)c1`, the IC50 on Gamma-secretase [1] and on Gamma-secretase [2] was more than 10 µM throughout. Besides, in [11], the solubility stood at 33 µM (≈ 12.3 µg/mL).
With `COc1cc(/C=C/c2nc(N)nc(Nc3ccccc3)n2)ccc1-n1cnc(C)c1`, the IC50 at Gamma-secretase [1] is 3.33 µM; at Gamma-secretase [2] it was 1.07 µM.
For the molecule `CCOC(=O)c1sc2nc(/C=C/c3ccc(-n4cnc(C)c4)c(OC)c3)nc(N)c2c1C`, the IC50 at Gamma-secretase [1] came out at 3.72 µM; at Gamma-secretase [2] it was 0.54 µM; in [3], 0.98 µM.
On the same counts, the results for `COc1cc(/C=C/c2nc(N)c3c(n2)oc2ccccc23)ccc1-n1cnc(C)c1` are 2.96 µM, 0.32 µM and 0.51 µM.
For `COc1cc(/C=C/c2nc(NCc3ccccc3)c3c4c(sc3n2)CCC4)ccc1-n1cnc(C)c1`, the values for the IC50 (at Gamma-secretase [1]; on Gamma-secretase [2]; in [3]) were more than 10 µM, 1.86 µM and 1.12 µM, respectively.
As for `COc1cc(/C=C/c2nc(N)c3c4c(sc3n2)CCCCC4)ccc1-n1cnc(C)c1`, the figures for the IC50 at Gamma-secretase [1] and at Gamma-secretase [2] were 2.03 µM and 0.2 µM, respectively.

As usually defined, the IC50 is the concentration needed to halve the response being measured. Usually clearance stands for a measure of how efficiently the substance is removed, as volume per time. By Vd is commonly meant a proportionality between amount in the body and measured concentration, not a real space. The half-life is the time needed for the level to fall by half in the phase considered. A high value points to slow decline. What is called bioavailability is the share of a dose that reaches the circulation, judged against a reference dose that is usually intravenous. In general, CL/F refers to clearance divided by bioavailability, as obtained after extravascular dosing. In general, AUC refers to the area under the concentration-time curve, a measure of exposure. For orientation: solubility means the concentration that dissolves in the medium under given conditions. Higher therefore signals much dissolved substance.

The record behind these values is ChEMBL document CHEMBL1641467, “Quinazolinones as γ-secretase modulators” (Bioorg Med Chem Lett, 2011).
